Measurements as given in publication PMC7318308, “A Novel Synthetic Dual Agonistic Liposomal TLR4/7 Adjuvant Promotes Broad Immune Responses in an Influenza Vaccine With Minimal Reactogenicity” (Frontiers in Immunology, 2020).
“Also recorded” adds a separate entry of the source. Like-named read-outs stand apart in the source and are kept apart here.

Columns and labels:
[1] = system: HEK-Blue hTLR4 reporter cells; experiment: MTT cell viability, human TLR4 reporter cells; type: cell-based; conditions: dose response, % viability normalized to vehicle (0.5% DMSO)
Protocol: (§1) TLR4/NF-κB activation was assessed using HEK-Blue™ hTLR4 and HEK-Blue™ mTLR4 (InvivoGen). The cells were treated with 1Z105 and 2B182C (2-fold serial dilutions starting from 10 μM) for 20 h. NF-κB inducible secreted embryonic alkaline phosphatase (SEAP) protein in the culture supernatant was measured according to manufacturer's protocol. To evaluate cell viability, 0.5 mg/mL 3-[4,5-dimethylthiazol-2-yl]-2,5-dipheyl tetrazolium bromide (MTT, Thermo Fisher Scientific) solution was added to each well and incubated at 37°C. Six hours later, formazan crystals were lysed with lysis buffer (15% SDS and 0.12% 12 N HCl) and the absorbance was measured at 570 nm using 650 nm as a reference with a plate reader (Tecan, Switzerland).
(§2) Human TLR4 reporter cells Murine TLR4 reporter cells
(§3) [Compound] 1 μM 10 [Compound] 1 μM 10
(§4) Supplementary Figure 1. Dose response curves for cell viability (toxicity) of lead compounds in human and murine TLR4-NF-κB reporter cells. Cellular toxicity evaluated by MTT assay is presented as % viability normalized to vehicle (0.5% DMSO) as 100%. While 1Z105 had minimal toxicity in both hTLR4 and mTLR4 reporter cells (HEK-BlueTM hTLR4 and HEK-BlueTM mTLR4, […]
(§5) (also on this page, place not known: %Relative (Normalized 100%) 101101 viability vehicle as to)

mBMDCs [2] = experiment: IL-12 and IL-6 production in mouse BMDCs (ELISA); type: cell-based
Protocol: (§6) Human PBMC (10^6 cells/mL) were treated with 5 μM 1Z105 and 2B182C overnight and the culture supernatant assessed for human IL-8 by ELISA. Mouse BMDCs (10^6 cells/mL) were incubated with serially diluted compounds (2-fold dilution from 5 μM). 0.5% DMSO was used as vehicle. IL-12 and IL-6 levels in the supernatant were measured by ELISA. ELISA was performed as previously described ([57]). Reagents and dilution factors of antibodies are described in Supplementary Table 1.

[3] = system: HEK-Blue mTLR4 reporter cells; experiment: MTT cell viability, murine TLR4 reporter cells; type: cell-based; conditions: dose response, % viability normalized to vehicle (0.5% DMSO)
Protocol: as §1, §2, §3, §4, §5

mouse TLR4 = molecular target: T1, mouse TLR4 (Mus musculus, UniProt Q9JHF9+Q9QUK6); experiment: TLR4/NF-κB reporter cell assay (SEAP), HEK-Blue mTLR4; type: cell-based; conditions: for EC50: 20 h, 2-fold serial dilutions from 10 μM, NF-κB SEAP, read-out: EC50 on mTLR4 reporter cells; for murine TLR4 agonistic activity (in words): AUC normalized to 2B110 as 100%, Figure 1C
T1 construct: host or cells: HEK-Blue mTLR4 (HEK293-derived NF-κB/SEAP reporter cells)
T1 sequence (Q9QUK6 26-835): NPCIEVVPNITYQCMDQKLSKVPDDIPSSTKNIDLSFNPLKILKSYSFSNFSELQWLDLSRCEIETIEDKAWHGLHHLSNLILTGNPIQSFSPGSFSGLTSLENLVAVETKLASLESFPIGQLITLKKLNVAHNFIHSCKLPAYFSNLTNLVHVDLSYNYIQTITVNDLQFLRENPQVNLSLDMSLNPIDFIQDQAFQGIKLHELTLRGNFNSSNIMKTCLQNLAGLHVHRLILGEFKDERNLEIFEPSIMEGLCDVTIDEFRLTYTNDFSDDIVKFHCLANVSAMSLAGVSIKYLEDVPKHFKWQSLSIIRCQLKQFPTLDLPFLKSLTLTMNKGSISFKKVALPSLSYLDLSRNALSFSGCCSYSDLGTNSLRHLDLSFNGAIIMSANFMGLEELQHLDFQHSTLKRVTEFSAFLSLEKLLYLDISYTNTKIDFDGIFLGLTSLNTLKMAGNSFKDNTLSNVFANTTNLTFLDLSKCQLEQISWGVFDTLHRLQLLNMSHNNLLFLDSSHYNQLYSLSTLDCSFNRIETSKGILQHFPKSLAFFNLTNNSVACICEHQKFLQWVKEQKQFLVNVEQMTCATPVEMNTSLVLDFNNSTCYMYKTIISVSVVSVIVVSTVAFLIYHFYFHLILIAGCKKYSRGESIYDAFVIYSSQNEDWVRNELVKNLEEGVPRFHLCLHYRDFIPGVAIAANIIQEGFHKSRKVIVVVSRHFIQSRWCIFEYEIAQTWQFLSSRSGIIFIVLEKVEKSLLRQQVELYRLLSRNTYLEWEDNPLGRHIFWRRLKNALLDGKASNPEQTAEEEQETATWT
T1 sequence (Q9JHF9 19-160): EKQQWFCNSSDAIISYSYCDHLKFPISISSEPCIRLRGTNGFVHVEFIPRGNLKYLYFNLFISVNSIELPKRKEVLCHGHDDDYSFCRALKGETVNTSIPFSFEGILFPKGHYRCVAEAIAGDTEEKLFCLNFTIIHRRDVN
Protocol: (§7) Figure 1 Structure-activity relationship studies in TLR4 agonistic pyrimidoindoles. (A) Syntheses of C8-alkynyl and C8-alkyl analogs. (B) Syntheses of C8-aryl analogs. (C) Scatter plot of hTLR4 and mTLR4 agonistic activity in TLR4-NF-κB HEK reporter cells (HEK-Blue™ hTLR4 and HEK-Blue™ mTLR4, respectively). NF-κB inducible NF-κB SEAP levels in culture supernatants were measured according to manufacturer's protocol. The TLR4 agonistic potency was evaluated as area under the curve (AUC) calculated for dose response curve using 2-fold serial dilutions from 10 μM, and normalized to the AUC for 2B110 as 100% on both axes. […] The color of each point is based on cell viability in TLR4-NF-κB reporter cells for compounds evaluated at 5 μM concentration. Viability data was normalized to vehicle control (Vehicle OD570−650 = 0.58 ± 0.01). (D) Structures of the lead compounds with differences at C8 substitution highlighted in blue.
(§8) Titration curves of 1Z105 and derivatives were used to assess their potency in stimulating human and mouse TLR4 response using HEK NF-κB reporter cells (HEK-Blue™ hTLR4 and mTLR4, respectively). The areas under the curve for dose response curves relative to vehicle (0.5% DMSO) were normalized to the greatest activity as 100% of 2B110 for both assays (Figure 1C). The compounds were also tested for in vitro toxicity by MTT assay (Figure 1C, Supplementary Figure 1).
as §1

[4] = system: TLR4-NF-κB reporter cells; experiment: MTT cell viability in TLR4-NF-κB reporter cells; type: cell-based; conditions: 10 µM, MTT, Supplementary Figure 1
Protocol: as §7, §1

mBMDCs [5] = experiment: CD40 and CD86 expression on BMDCs (flow cytometry); type: cell-based, mouse; conditions: 1 μM, 20 h; compared to 1Z105
Protocol: Detailed information for reagents used in flow cytometry analysis are shown in Supplementary Table 2. For co-stimulatory molecules on mBMDCs, mBMDCs (10^6 cells/mL) were incubated with 1 μM 1Z105 and 2B182C for 20 h. 0.5% DMSO was uses as vehicle. After removing the supernatant, cells were washed with the stain buffer (BD Biosciences, San Diego, CA) and incubated with anti-mouse CD16/32 antibody for blocking FcR. Cells were then stained with an antibody cocktail with anti-CD40 and anti-CD86 antibodies for 20–30 min at 4°C. For analysis of lymphocytes harvested from draining lymph nodes, two antibody cocktails were prepared; (1) anti-CD3, anti-CD4, anti-PD-1, and anti-CXCR5 antibodies for Tfh cell analysis, (2) anti-CD3, anti-CD19, anti-CD95, anti-CD138, and anti-GL7 antibodies for B cell analysis. After blocking with anti-CD16/CD32 antibody, 2 × 10^6 cells were stained in each antibody cocktail. For Tfh cell analysis, after staining with primary antibodies, cells were washed with PBS, and incubated with streptavidin-PE. Cells were then washed and stained with propidium iodide to determine live/dead cells. Data were acquired using MACSQuant Analyzer 10 (Miltenyi Biotec, Germany) and analyzed using FlowJo (version 10.6.1, Becton Dickinson, Ashland, OR).

human TLR4 = molecular target: T2, human TLR4 (Homo sapiens, UniProt O00206+Q9Y6Y9); experiment: TLR4/NF-κB reporter cell assay (SEAP), HEK-Blue hTLR4; type: cell-based; conditions: for human TLR4 agonistic activity (in words): AUC normalized to 2B110 as 100%, Figure 1C
T2 construct: host or cells: HEK-Blue hTLR4 (HEK293-derived NF-κB/SEAP reporter cells)
Protocol: as §7, §8, §1

[6] = system: IIAV A/California/04/2009 (H1N1)pdm09 HA and NA; experiment: Prime-boost vaccination model with IIAV, serum anti-HA/anti-NA IgG ELISA; type: in vivo, BALB/c mice; conditions: i.m. IIAV 10 μg + adjuvant days 0 and 21, sera day 28; 1V270 1 nmol, TLR4 ligand 200 nmol/injection
hPBMCs = experiment: IL-8 release from human PBMC (ELISA); type: cell-based; conditions: 5 μM, overnight; compared to 1Z105
Protocol: as §6

[7] = Mus musculus, BMDC, read-out: EC50 for IL-6 production in mBMDCs, 2-fold dilution from 5 μM
[8] = Mus musculus, BMDC, read-out: EC50 for IL-12 production in mBMDCs, 2-fold dilution from 5 μM

T2 sequence (O00206 24-839): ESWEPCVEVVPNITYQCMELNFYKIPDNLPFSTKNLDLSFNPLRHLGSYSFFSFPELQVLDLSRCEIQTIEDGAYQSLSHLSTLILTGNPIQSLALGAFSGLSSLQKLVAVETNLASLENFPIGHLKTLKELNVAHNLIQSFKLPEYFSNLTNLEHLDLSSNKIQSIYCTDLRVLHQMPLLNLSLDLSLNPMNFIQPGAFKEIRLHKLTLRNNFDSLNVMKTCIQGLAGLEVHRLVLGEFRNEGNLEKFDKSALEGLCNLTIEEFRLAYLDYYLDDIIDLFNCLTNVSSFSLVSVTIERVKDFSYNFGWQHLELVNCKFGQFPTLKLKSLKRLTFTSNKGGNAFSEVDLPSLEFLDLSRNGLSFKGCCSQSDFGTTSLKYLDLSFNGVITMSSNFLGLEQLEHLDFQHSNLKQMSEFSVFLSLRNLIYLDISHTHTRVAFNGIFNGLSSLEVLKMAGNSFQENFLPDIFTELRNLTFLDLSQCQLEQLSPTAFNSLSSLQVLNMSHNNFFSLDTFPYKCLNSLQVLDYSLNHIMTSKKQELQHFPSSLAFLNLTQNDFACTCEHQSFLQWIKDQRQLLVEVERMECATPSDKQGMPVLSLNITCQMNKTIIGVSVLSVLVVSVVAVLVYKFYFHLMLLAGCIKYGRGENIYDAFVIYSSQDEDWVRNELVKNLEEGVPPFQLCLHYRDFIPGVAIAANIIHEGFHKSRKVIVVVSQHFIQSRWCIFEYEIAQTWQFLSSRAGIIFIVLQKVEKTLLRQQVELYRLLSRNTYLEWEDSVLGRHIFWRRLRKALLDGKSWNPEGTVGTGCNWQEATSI
T2 sequence (Q9Y6Y9 17-160 limits assumed): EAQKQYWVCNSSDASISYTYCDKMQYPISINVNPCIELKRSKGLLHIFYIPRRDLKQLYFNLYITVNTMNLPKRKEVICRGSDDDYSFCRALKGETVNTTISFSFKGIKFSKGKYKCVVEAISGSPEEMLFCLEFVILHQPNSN

Compound: Cn1c2ccccc2c2nc(SCC(=O)NC3CCCCC3)n(-c3ccccc3)c(=O)c21 [1Z105, N-cyclohexyl-2-((5-methyl-4-oxo-3-phenyl-4,5-dihydro-3H-pyrimido[5,4-b]indol-2-yl)thio)acetamide]
- toxicity, hTLR4 reporter cells (in words) [1]: minimal
- EC50 (mBMDCs [2]; [7]): 630 nM
- EC50 (mBMDCs [2]; [8]): 770 nM
- toxicity, mTLR4 reporter cells (in words) [3]: minimal
- EC50 (mouse TLR4): 7490 nM

Compound: Cn1c2ccc(-c3ccco3)cc2c2nc(SCC(=O)NC3CCCCC3)n(-c3ccccc3)c(=O)c21 [2B182C]
- toxicity at 10 µM (in words) [4]: exhibited toxicity
- CD40 expression on mBMDCs (in words) (mBMDCs [5]): significantly higher expression levels
- CD86 expression on mBMDCs (in words) (mBMDCs [5]): significantly higher expression levels
- EC50 (human TLR4; 20 h, 2-fold serial dilutions from 10 μM, NF-κB SEAP, read-out: EC50 on hTLR4 reporter cells): 1660 nM
- human TLR4 agonistic activity (in words) (human TLR4): high TLR4 stimulatory potency
- human TLR4 agonistic activity (in words) (human TLR4; listed as 8s): potency equivalent to that of compound 2B110
- fold more potent than 1Z105, hTLR4 reporter cells (human TLR4; ratio of EC50): approximately 800 fold
- EC50 (mBMDCs [2]; [7]): 160 nM
- EC50 (mBMDCs [2]; [8]): 200 nM
- EC50 (mBMDCs [2]; read-out: EC50 for IL-6 production in mBMDCs, 2-fold dilution from 5 μM): 120 nM
- serum anti-HA IgG1 (in words) [6]: significantly increased; also recorded: higher serum anti-HA and anti-NA IgG1 levels compared to 1Z105
- serum anti-NA IgG1 (in words) [6]: significantly increased; also recorded: higher serum anti-HA and anti-NA IgG1 levels compared to 1Z105
- serum anti-NA IgG2a (in words) [6]: enhanced
- IL-8 secretion by hPBMCs (in words) (hPBMCs): higher level of IL-8 secretion
- EC50 (mouse TLR4): 1650 nM
- murine TLR4 agonistic activity (in words) (mouse TLR4): high TLR4 stimulatory potency
- murine TLR4 agonistic activity (in words) (mouse TLR4; listed as 8s): potency equivalent to that of compound 2B110
- fold more potent than 1Z105, mTLR4 reporter line (mouse TLR4; ratio of EC50): 4 fold
